According to US20240343704A1, “HALO-SUBSTITUTED AMINO PYRIDINE COMPOUNDS AS INHIBITORS OF THE HAEMATOPOIETIC PROGENITOR KINASE 1 (HPK1)” (priority 2021, published 2024):

Biological target: T1, Recombinant (1-346) HPK1 (h) (Homo sapiens, UniProt Q92918)
T1 construct: Recombinant (1-346) HPK1 (h) is incubated with 8 mM MOPS pH 7.0
T1 sequence (Q92918 1-346): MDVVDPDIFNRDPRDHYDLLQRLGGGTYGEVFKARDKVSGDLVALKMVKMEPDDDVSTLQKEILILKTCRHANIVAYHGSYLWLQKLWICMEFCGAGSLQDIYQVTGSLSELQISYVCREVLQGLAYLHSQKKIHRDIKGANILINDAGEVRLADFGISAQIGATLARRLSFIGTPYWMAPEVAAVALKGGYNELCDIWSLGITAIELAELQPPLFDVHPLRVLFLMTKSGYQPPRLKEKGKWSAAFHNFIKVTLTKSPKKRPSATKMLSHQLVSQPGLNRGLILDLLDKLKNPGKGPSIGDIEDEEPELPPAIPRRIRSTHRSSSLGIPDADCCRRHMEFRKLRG
Test: HPK1 Human STE Kinase Enzymatic Radiometric Assay
Assay type: biochemical
Settings: read-out: HPK1 IC50 nM Range*
Experimental: A stock solution of 10 mM of test compound is prepared in DMSO. The compound plate was prepared by 3-fold and 9-point serial dilutions. […] The reaction is initiated by The addition of the Mg/ATP mix. After incubation for 40 minutes at RT, the reaction is stopped by the addition of phosphoric acid to a concentration of 0.5%.

Compound	IC50
CN(C)Cc1cccc(-c2cc(-c3ccc4c(c3)CCNC4=O)c(N)nc2F)c1 [I-594, 6-(2-amino-5-(3-((dimethylamino)methyl)phenyl)-6-fluoropyridin-3-yl)-3,4-dihydroisoquinolin-1(2H)-one]	11 to 100 nM
Cc1nc2cc(-c3cc(-c4ccc(N5C[C@@H](C)O[C@@H](C)C5)c(CN(C)C)c4)c(F)nc3N)ccc2c(=O)[nH]1 [I-595, 7-(2-amino-5-(3-((dimethylamino)methyl)-4-((2R,6S)-2,6-dimethylmorpholino)phenyl)-6-fluoropyridin-3-yl)-2-methylquinazolin-4(3H)-one]	11 to 100 nM
C[C@@H]1CN(c2ccc(-c3cc(-c4cc(F)c5c(c4)CCNC5=O)c(N)nc3F)cc2CN(C)C)C[C@H](C)O1 [I-596, 6-(2-amino-5-(3-((dimethylamino)methyl)-4-((2R,6S)-2,6-dimethylmorpholino)phenyl)-6-fluoropyridin-3-yl)-8-fluoro-3,4-dihydroisoquinolin-1(2H)-one]	11 to 100 nM
C[C@@H]1CN(c2ccc(-c3cc(-c4cc5c(cc4F)C(=O)NCC5)c(N)nc3F)cc2CN(C)C)C[C@H](C)O1 [I-597, 6-(2-amino-5-(3-((dimethylamino)methyl)-4-((2R,6S)-2,6-dimethylmorpholino)phenyl)-6-fluoropyridin-3-yl)-7-fluoro-3,4-dihydroisoquinolin-1(2H)-one]	11 to 100 nM
C[C@H]1CN(c2ccc(-c3cc(-c4ccc5c(c4)CCNC5=O)c(N)nc3F)cc2CN2CCC2)CCO1 [I-598, (S)-6-(2-amino-5-(3-(azetidin-1-ylmethyl)-4-(2-methylmorpholino)phenyl)-6-fluoropyridin-3-yl)-3,4-dihydroisoquinolin-1(2H)-one]	11 to 100 nM
C[C@H]1CN(c2ccc(-c3cc(-c4cc5c(cc4F)C(=O)NCC5)c(N)nc3F)cc2CN2CCC2)CCO1 [I-599, (S)-6-(2-amino-5-(3-(azetidin-1-ylmethyl)-4-(2-methylmorpholino)phenyl)-6-fluoropyridin-3-yl)-7-fluoro-3,4-dihydroisoquinolin-1(2H)-one]	11 to 100 nM
CN(C)Cc1nc(-c2cc(-c3ccc4c(c3)CCNC4=O)c(N)nc2F)ccc1C1CCOCC1 [I-600, 6-(6′-amino-6-((dimethylamino)methyl)-2′-fluoro-5-(tetrahydro-2H-pyran-4-yl)-[2,3′-bipyridin]-5′-yl)-3,4-dihydroisoquinolin-1(2H)-one]	0.1 to 10 nM
CN(C)Cc1nc(-c2cc(-c3cc4c(cc3F)C(=O)NCC4)c(N)nc2F)ccc1C1CCOCC1 [I-601, 6-(6′-amino-6-((dimethylamino)methyl)-2′-fluoro-5-(tetrahydro-2H-pyran-4-yl)-[2,3′-bipyridin]-5′-yl)-7-fluoro-3,4-dihydroisoquinolin-1(2H)-one]	0.1 to 10 nM
Nc1nc(F)c(-c2ccc(C3CCOCC3)c(CN3CCC3)n2)cc1-c1cc2c(cc1F)C(=O)NCC2 [I-602, 6-(6′-amino-6-(azetidin-1-ylmethyl)-2′-fluoro-5-(tetrahydro-2H-pyran-4-yl)-[2,3′-bipyridin]-5′-yl)-7-fluoro-3,4-dihydroisoquinolin-1(2H)-one]	0.1 to 10 nM
CCN(C)Cc1nc(-c2cc(-c3ccc4c(c3)CCNC4=O)c(N)nc2F)ccc1C1CCOCC1 [I-603, 6-(6′-amino-6-((ethyl(methyl)amino)methyl)-2′-fluoro-5-(tetrahydro-2H-pyran-4-yl)-[2,3′-bipyridin]-5′-yl)-3,4-dihydroisoquinolin-1(2H)-one]	0.1 to 10 nM
CCN(C)Cc1nc(-c2cc(-c3cc4c(cc3F)C(=O)NCC4)c(N)nc2F)ccc1C1CCOCC1 [I-604, 6-(6′-amino-6-((ethyl(methyl)amino)methyl)-2′-fluoro-5-(tetrahydro-2H-pyran-4-yl)-[2,3′-bipyridin]-5′-yl)-7-fluoro-3,4-dihydroisoquinolin-1(2H)-one]	0.1 to 10 nM
Nc1nc(F)c(-c2ccc(C3CCOCC3)c(CN3CCC3)n2)cc1-c1ccc2c(c1)CCNC2=O [I-605, 6-(6′-amino-6-(azetidin-1-ylmethyl)-2′-fluoro-5-(tetrahydro-2H-pyran-4-yl)-[2,3′-bipyridin]-5′-yl)-3,4-dihydroisoquinolin-1(2H)-one]	0.1 to 10 nM
CN(C)Cc1c(N2CCOCC2)ccc(-c2cc(-c3ccc4c(c3)CCNC4=O)c(N)nc2F)c1F [I-606, 6-(2-amino-5-(3-((dimethylamino)methyl)-2-fluoro-4-morpholinophenyl)-6-fluropyridin-3-yl)-3,4-dihydroisoquinolin-1(2H)-one]	11 to 100 nM
CN(C)Cc1c(N2CCOCC2)ccc(-c2cc(-c3cc4c(cc3F)C(=O)NCC4)c(N)nc2F)c1F [I-607, 6-(2-amino-5-(3-((dimethylamino)methyl)-2-fluoro-4-morpholinophenyl)-6-fluoropyridin-3-yl)-7-fluoro-3,4-dihydroisoquinolin-1(2H)-one]	11 to 100 nM
Nc1nc(F)c(-c2ccc(N3CCOCC3)c(CN3CCC3)c2F)cc1-c1cc2c(cc1F)C(=O)NCC2 [I-608, 6-(2-amino-5-(3-(azetidin-1-ylmethyl)-2-fluoro-morpholinophenyl)-6-fluoropyridin-3-yl)-7-fluoro-3,4-dihydroisoquinolin-1(2H)-one]	11 to 100 nM
CCN(C)Cc1c(N2CCOCC2)ccc(-c2cc(-c3ccc4c(c3)CCNC4=O)c(N)nc2F)c1F [I-610, 6-(2-amino-5-(3-((ethyl(methyl)amino)methyl)-2-fluoro-4-morpholinophenyl)-6-fluoropyridin-3-yl)-3,4-dihydroisoquinolin-1(2H)-one]	11 to 100 nM
CCN(C)Cc1c(N2CCOCC2)ccc(-c2cc(-c3cc4c(cc3F)C(=O)NCC4)c(N)nc2F)c1F [I-611, 6-(2-amino-5-(3-((ethyl(methyl)amino)methyl)-2-fluoro-4-morpholinophenyl)-6-fluoropyridin-3-yl)-7-fluoro-3,4-dihydroisoquinolin-1(2H)-one]	11 to 100 nM
CN(C)Cc1cc(-c2cc(-c3ccc4c(c3)CCNC4=O)c(N)nc2F)cnc1N1CCOCC1 [I-612, 6-(6-amino-5′-((dimethylamino)methyl)-2-fluoro-6′-morpholino-[3,3′-bipyridin]-5-yl)-3,4-dihydroisoquinolin-1(2H)-one]	11 to 100 nM
CN(C)Cc1cc(-c2cc(-c3ccc4c(c3)CCNC4=O)c(N)nc2F)ncc1N1CCOCC1 [I-613, 6-(6′-amino-4-((dimethylamino)methyl)-2′-fluoro-5-morpholino-[2,3′-bipyridin]-5′-yl)-3,4-dihydroisoquinolin-1(2H)-one]	11 to 100 nM
CC(C)N(C)Cc1cc(-c2cc(-c3ccc4c(c3)CCNC4=O)c(N)nc2F)ccc1N1CCOCC1 [I-614, 6-(2-amino-6-fluoro-5-(3-((isopropyl(methyl)amino)methyl)-4-morpholinoophenyl)pyridin-3-yl)-3,4-dihydroisoquinolin-1(2H)-one]	11 to 100 nM
CCN(CC)Cc1cc(-c2cc(-c3ccc4c(c3)CCNC4=O)c(N)nc2F)ccc1N1CCOCC1 [I-615, 6-(2-amino-5-(3-((diethylamino)methyl)-4-morpholinophenyl)-6-fluoropyridin-3-yl)-3,4-dihydroisoquinolin-1(2H)-one]	0.1 to 10 nM
CN(Cc1cc(-c2cc(-c3ccc4c(c3)CCNC4=O)c(N)nc2F)ccc1N1CCOCC1)CC1CCCO1 (stereo not shown) [I-616, 6-(2-amino-6-fluoro-5-(3-((methyl((tetrahydrofuran-2-yl)methyl)amino)methyl)-4-morpholinophenyl)pyridin-3-yl)-3,4-dihydroisoquinolin-1(2H)-one]	0.1 to 10 nM
CN(C)Cc1cc(-c2cc(-c3ccc4c(c3)CCNC4=O)c(N)nc2F)ccc1F [I-617, 6-(2-amino-5-(3-((dimethylamino)methyl)-4-fluorophenyl)-6-fluoropyridin-3-yl)-3,4-dihydroisoquinolin-1(2H)-one]	11 to 100 nM
CN(C)Cc1cc(-c2cc(-c3cc4c(cc3F)C(=O)NCC4)c(N)nc2F)ccc1F [I-618, 6-(2-amino-5-(3-((dimethylamino)methyl)-4-fluorophenyl)-6-fluoropyridin-3-yl)-7-fluoro-3,4-dihydroisoquinolin-1(2H)-one]	11 to 100 nM
CN(Cc1cc(-c2cc(-c3cc4c(cc3F)C(=O)NCC4)c(N)nc2F)ccc1N1CCOCC1)CC1CCCO1 (stereo not shown) [I-619, 6-(2-amino-6-fluoro-5-(3-((methyl((tetrahydrofuran-2-yl)methyl)amino)methyl)-4-morpholinophenyl)pyridin-3-yl)-7-fluoro-3,4-dihydroisoquinolin-1(2H)-one]	11 to 100 nM
CN(C)Cc1cc(-c2cc(-c3ccc4c(c3)CCNC4=O)c(N)nc2F)ccc1C1CCOC1 (stereo not shown) [I-620, 6-(2-amino-5-(3-((dimethylamino)methyl)-4-(tetrahydrofuran-3-yl)phenyl)-6-fluoropyridin-3-yl)-3,4-dihydroisoquinolin-1(2H)-one]	0.1 to 10 nM
CN(C)Cc1cc(-c2cc(-c3cc4c(cc3F)C(=O)NCC4)c(N)nc2F)ccc1C1CCOC1 (stereo not shown) [I-621, 6-(2-amino-5-(3-((dimethylamino)methyl)-4-(tetrahydrofuran-3-yl)phenyl)-6-fluoropyridin-3-yl)-7-fluoro-3,4-dihydroisoquinolin-1(2H)-one]	11 to 100 nM
CN(C)Cc1cc(-c2cc(-c3ccc4c(c3)CCNC4=O)c(N)nc2F)c(F)cc1N1CCOCC1 [I-622, 6-(2-amino-5-(5-((dimethylamino)methyl)-2-fluoro-4-morpholinophenyl)-6-fluoropyridin-3-yl)-3,4-dihydroisoquinolin-1(2H)-one]	11 to 100 nM
